Data taken from a melting point compilation (Tetko et al.; mined from patent text by program, amines drawn as free bases though some values may be those of a salt).

SMILES	melting point
CC(C)(C)OCC1CNC(=O)O1 (stereo not given)	57 to 65 °C
NC(=O)C12CCCC(C1)C1CCC2C1 (stereo not given)	173 to 174 °C
COc1ccc(-c2ccc(C(=O)O)cc2)cc1-c1ccc2c(c1)C(C)(C)CCC2(C)C	251 to 255 °C
CC(C)CCOc1cccc2oc(-c3nnn[nH]3)cc(=O)c12	165 to 166 °C
O=S(=O)(Cl)c1ccc(F)c2nonc12	64 to 66 °C
CCC(CC)N1C(=O)NCc2c1cc(C)nc2Oc1c(C)cc(C)cc1C	197 to 199 °C
CN1C(=O)[C@H](NC(=O)CCc2ccc(Cl)cc2Cl)N=C(c2ccccc2N)c2cc(N)ccc21	188 to 189 °C
COC(=O)C(C)(C)OCC#Cc1cc(Cl)ccc1NS(=O)(=O)c1ccc(OC)cc1	98 to 100 °C
COc1cc2c(cc1OC)CN(CCCc1ccc(NC(=O)c3cccc4c(=O)c5cccc(F)c5[nH]c34)cc1)CC2	166 °C
O=C(Nc1ncccn1)Nc1cccc2c1C1CCCCN1C2=O (stereo not given)	232 °C
COc1ccc(C2(O)CCCN(Cc3ccccc3)C2)cc1 (stereo not given)	58 °C
CN(C)CCN1C(=O)C(NC(=O)c2ccc(Cl)cc2)C(C)(C)SC1=S (stereo not given)	152 to 153 °C
COC(=O)C(Cc1ccc(Cl)cc1Cl)c1ccccc1Cl (stereo not given)	67.9 °C
O=C(O)CC1CCCc2c1n(Cc1ccc(Cl)cc1)c1ccc(C(F)(F)F)cc21 (stereo not given)	167 to 168 °C
CC(C)(C)NS(=O)(=O)c1cccnc1F	95 to 97 °C
COc1cccc2c1CC(C(=O)NCCOc1ccc(C(=O)O)cc1)N2S(=O)(=O)c1ccc(-c2ccc(F)cc2Cl)cc1 (stereo not given)	190 to 204 °C
O=[N+]([O-])c1ccc(NN=C(c2ccccc2)c2ccc(O)cc2)c([N+](=O)[O-])c1	224 to 225 °C
COc1cccc(-c2cnc(-c3ccoc3)s2)c1	61 to 62 °C
Nc1cnn2cnc3ccccc3c12	168 to 170 °C
CCN(CC)C(=O)N[C@H]1CC[C@H](CCN2CCN(c3cccc4c3CCC4)CC2)CC1	157 to 159 °C

SMILES	melting point
CC(=O)Nc1nc(Cl)c(NC=O)c(Cl)n1	189 to 193 °C
Cc1nc(C)c(CN2CCN(C)CC2)c(-c2ccccc2OCc2ccc(Cl)cc2)n1	110 to 111 °C
CCCC(=O)Nc1ccc2[nH]c(C(=O)O)cc2c1	210 °C
N#CNC(CSCc1ccccn1)=NCCO	68 to 69 °C
c1cc(-c2ccnc3nc(N4CCNCC4)nn23)ccn1	147 to 149 °C
CCc1nn2ccc3c(c2c1C(C)=O)CCO3	164 to 165 °C
COc1cc(C)cc(OC)c1N(CCC(C)C)C(=O)CNC(=O)OC(C)(C)C	132 °C
CON(C)C(=O)Nc1ccc(OCCc2cccc(C)n2)cc1	96 to 97 °C
COc1cc(CC(C#N)=CNc2ccccc2)cc(OC)c1C(N)=O	288 to 290 °C
COc1ccccc1C1c2cc(NC(=O)CC(C)(C)C)c(C)c(C)c2OC1(C)C (stereo not given)	169 to 170 °C
O=[N+]([O-])c1ccc(N2CCN(CCCCCCCCCCCO)CC2)cc1	118 °C
NC(=NC(=O)c1nc(Cl)c(N)nc1N)NCCCCc1ccc(OCC(=O)Nc2ccccc2)cc1	168 to 170 °C
CCC(C)CCCCCCCCCCCCCCCCC(=O)O (stereo not given)	53 °C
CCCC(=O)c1cnc2c(C=O)cccc2c1Nc1ccccc1C	142 to 144 °C
COC(=O)NNC(=O)CCC1CCCCC1	113 °C
O=C(O)CC(O)(Cn1cncn1)c1ccc(Cl)cc1Cl (stereo not given)	158 to 159 °C
O=C(O)c1ccc(NCCNC(=O)C2Cc3ccccc3N2S(=O)(=O)c2ccc(-c3cc(C(F)(F)F)ccc3Cl)cc2)cc1 (stereo not given)	130 °C
C=CC(C)=CC=C(C(C)=CC(=O)OC1C(CO)OC(OC)C(O)C1O)c1c(C)cc(OC)c(C)c1C (stereo not given)	159 to 160 °C
CC(Cn1ccnc1)Cn1nnc2ccc(Cl)cc2c1=O (stereo not given)	100 to 102 °C
COc1cc2ccc(CC(=S)N3CCOCC3)cc2cc1OC	158 to 161 °C
